Data on ten molecules can be found in US11065335B2, “Methods of treating leukemia using compositions containing bis(benzylthio)octanoic acid and ion pairs thereof” (Rafael Pharmaceuticals, Inc., priority 2007, dated 2021).

Counter-ions that a name gives are not always drawn. Bounds are passed on as bounds.

A short description of data set [1]: CellTiter Glo cell viability assay, A2780 cells. Particulars: human, A2780 Cell Viability; for viability at 24 h, 800 μM / viability at 24 h, 1600 μM / viability at 24 h, 3200 μM: A2780 ovarian cancer cells; for viability: 24 hrs. The method, then:
(§1) Two types of human tumor cells were used in this investigation: BXPC3 human pancreatic cancer cells and A2780 human ovarian cancer cells. The BXPC3 cells were originally obtained from American Type Cell Culture (ATCC). The ovarian tumor cells were gifts from Roswell Park Cancer Institute, Buffalo, N.Y. All tumor cells were maintained at 37° C. in a humidified 5% CO2 atmosphere in T75 tissue culture flasks containing 20 mL of Roswell Park Memorial Institute (RPMI) 1640 containing 2 mM L-glutamine, 10% fetal bovine serum (FBS) and 1% penicillin and streptomycin (100 IU/mL penicillin and 100 μg/mL streptomycin). The tumor cells were split at a ratio of 1:5 every 4-5 days by trypsinization and resuspended in fresh medium in a new flask. Cells were harvested for experiments at 70-90% confluency.
(§2) CPI-613 (i.e., 6,8-bis(benzylthio)octanoic acid) stock solutions at concentrations of 8, 4, 2, 1.5 and 0.5 mM were prepared in the appropriate vehicles. The molar ratio of vehicle to CPI-613 was maintained at 8:1. The corresponding vehicle concentrations were 64, 32, 16, 12, and 4 mM respectively. A sixty-four mM aliquot of vehicle was dissolved in 10 mL of water. Next, 8 mM of CPI-613 was added and the mixture was stirred until a clear solution was obtained. […] A 5 μL aliquot of this stock solution was added to 95 μL of tumor cells in media. Upon dilution in the wells, the corresponding drug concentrations were 400, 200, 100, 75 and 25 μM respectively.
(§3) For the sodium salt and potassium salt form of CPI-613, 1 equivalent of CPI-613 solid was dissolved in water. Sixty-two mg of CPI-613 (0.00016 mol) was added to 10 mL of water, then 165 μL of 1M NaOH or KOH was added and stirred until a clear solution was obtained. This gave a 16 mM solution. The resulting 16 mM solution was then serially diluted, thereby providing 8 mM and 4 mM solutions of the CPI-613 salt form. For the ammonium salt, vehicle to drug ratio was maintained at 8:1 and the formulation was prepared using procedures analogous to those described above in Section 2 relating to preparation of CPI-613 formulations in different vehicles.
(§4) CPI-613 formulated in 1M triethanolamine (TEA) was used as an internal control during formulation screening. To prepare a 16 mM of working stock of CPI-613, 50 mg/mL of CPI-613 (128.66 mM of CPI-613 in 1M TEA) was diluted in complete cell culture media containing 10% FBS. That is, 310 μL of a 128.66 mM solution of CPI-613 in 1M TEA was added to 2.19 mL of cell culture media. This stock was further diluted serially in complete media to give 8 mM, 4 mM 2 mM, 1.5 mM and 0.5 mM working solutions. On the day of testing, 5 μL of this working solution was added to 95 μL of cell culture media (20 fold dilution) resulting final concentrations of 400, 200, 100, 75 and 25 μM CPI-613, respectively. The ratio of CPI-613 to TEA was maintained at 1:8 ratio at all times.
(§5) The cell viability of CPI-613 formulations formulated at a ratio of 1:8, CPI-613 to vehicle, was assessed by exposing the A2780 ovarian tumor cells and BXPC3 human pancreatic cancer cells to the following CPI-613 concentrations: 400 μM (3200 μM vehicle), 200 μM (1600 μM vehicle), 100 μM (800 μM vehicle), 75 μM (600 μM vehicle) and 25 μM (200 μM vehicle) The impact of corresponding vehicles at 3200, 1600 and 800 μM concentrations was also tested in tumor cells for cell viability. […] CPI-613 in TEA was used as an internal control. The tumor cells were treated for 24 hrs with the test article in serum-containing medium. After 24 hrs of treatment the number of viable tumor cells was determined.
(§6) The number of cells targeted for the study was 4×10^3 per well in 100 μL of medium. The actual number of cells were counted and seeded in the wells of a 96 well-plate. The cells were incubated for ˜24 hrs before addition of CPI-613.
(§7) For each cell line the concentrations of test articles or vehicles specified above was used.
A general note: ATP-based viability assays read luminescence as a measure of living cells.

Data set [2] in a line: CellTiter Glo cell viability assay, BXPC3 cells. The following applies: human, BXPC3 Cell Viability; for viability at 24 h, 800 μM / viability at 24 h, 1600 μM / viability at 24 h, 3200 μM: BXPC3 pancreatic cancer cells; for viability: 24 hrs. The method, then: as §1, §2, §3, §4, §5, §6, §7
Data set [3] relates to A2780 ovarian tumor cells and BXPC3 human pancreatic cancer cells. The data set is described as follows: CellTiter Glo cell viability assay, text statements not split by cell line. The format is cell-based. Particulars: vehicle alone 3200 μM. The method, then:
Two types of human tumor cells were used in this investigation: BXPC3 human pancreatic cancer cells and A2780 human ovarian cancer cells. The BXPC3 cells were originally obtained from American Type Cell Culture (ATCC). […] The tumor cells were split at a ratio of 1:5 every 4-5 days by trypsinization and resuspended in fresh medium in a new flask. Cells were harvested for experiments at 70-90% confluency.
The corresponding vehicle concentrations were 64, 32, 16, 12, and 4 mM respectively. A sixty-four mM aliquot of vehicle was dissolved in 10 mL of water. […] A 5 μL aliquot of this stock solution was added to 95 μL of tumor cells in media. Upon dilution in the wells, the corresponding drug concentrations were 400, 200, 100, 75 and 25 μM respectively.
This gave a 16 mM solution.
This stock was further diluted serially in complete media to give 8 mM, 4 mM 2 mM, 1.5 mM and 0.5 mM working solutions.
The tumor cells were treated for 24 hrs with the test article in serum-containing medium. After 24 hrs of treatment the number of viable tumor cells was determined.
The number of cells targeted for the study was 4×10^3 per well in 100 μL of medium. The actual number of cells were counted and seeded in the wells of a 96 well-plate.
For each cell line the concentrations of test articles or vehicles specified above was used. Five μL of the working solution for each test article or vehicle was added to 95 μL of cell culture media. The corresponding final concentrations of test articles are 20 fold more diluted than the working solutions. […] Additionally, a set of wells was treated with cell culture medium in the absence of cells to obtain a value for background luminescence.
The number of viable cells was determined by using the CellTiter Glo® Assay. Specifically, reagents were mixed and allowed to come to room temperature according to instructions from Promega, Inc. (Madison, Wis.). Cell plates were removed from the cell culture incubator and left on the bench for 30 minutes until they reach room temperature. A one-hundred μL aliquot CellTiter Glo® reagent was added to each well with a 12-channel Eppendorf pipettor. The cells were lysed by shaking the plate for 2 minutes in a shaker. Then, the cells were kept at room temperature for 10 minutes to stabilize the luminescent signal. The luminescence was measured using the FLUOstar OPTIMA plate reader (BMG Labtech, Inc., Durham, N.C.).
Data from luminescence readings was copied onto EXCEL spreadsheets, and cell growth relative to untreated cells was calculated, using the following equation: […]
The calculated values were imported into SigmaPlot, v11. A Four-Parameter Logistic Curve of the “mean relative cell growth as a function of the concentrations of the test articles” was generated. The EC50 values were determined from the curves. The R-squared value provides an indication of the degree of fitness of data to the curve. For each experiment, the percentage of viable cells was be expressed as the mean of 9 replicates. The average was calculated by taking the mean±standard deviation of the three experiments.

Data set [4] relates to A2780 human ovarian cancer cells. The experiment in a line: CellTiter Glo cell viability assay, A2780 cells. Particulars: 24 hrs; for A2780 Cell Viability (alkali salt formulations): CPI-613 to base 1:1. As to the method:
as §1, §2, §3, §4, §5, §6, §7

The subject of data set [5] is BXPC3 human pancreatic cancer cells. The experiment in a line: CellTiter Glo cell viability assay, BXPC3 cells. Particulars: 24 hrs; for BXPC3 Cell Viability (alkali salt formulations): CPI-613 to base 1:1. The method, then:
as §1, §2, §3, §4, §5, §6, §7

What is called viability is the share of living cells, or the viability signal relative to a control. A lower viability goes with more harm to the cells. As for `CCN(CC)CC` [Triethylamine], the viability at 24 h, 800 μM in data set [1] (vehicle alone 800 μM) and in data set [2] (vehicle alone 800 μM) was more than 95% each time. Further, the viability at 24 h, 1600 μM in data set [1] (vehicle alone 1600 μM) and in data set [2] (vehicle alone 1600 μM) was more than 95% throughout. Further, the viability at 24 h, 3200 μM in data set [1] (vehicle alone 3200 μM) and in data set [2] (vehicle alone 3200 μM) was more than 95% throughout. Besides, in data set [3], the “impact of vehicle on cancer cell killing” value was “did not show a significant impact on cancer cell killing”.
For the molecule `CC(O)CNCC(C)O` (stereo not shown) [Diisopropanolamine], the “impact of vehicle on cancer cell killing” value in data set [3] is on record as “appear to have come cell killing effects”.
As for `NC(CO)(CO)CO` [Tris base], the viability at 24 h, 800 μM in data set [1] (vehicle alone 800 μM) and in data set [2] (vehicle alone 800 μM) was more than 95% in each case. Further, the viability at 24 h, 1600 μM in data set [1] (vehicle alone 1600 μM) and in data set [2] (vehicle alone 1600 μM) was more than 95% in each case. Moreover, the viability at 24 h, 3200 μM in data set [1] (vehicle alone 3200 μM) and in data set [2] (vehicle alone 3200 μM) was more than 95% each time. Also, the “impact of vehicle on cancer cell killing” value in data set [3] is recorded as “did not show a significant impact on cancer cell killing”.
For the molecule `CC(O)CN(CC(C)O)CC(C)O` (stereo not shown) [Triisopropanolamine], the viability in data set [1] (vehicle alone 800 μM) is more than 95%; in data set [1] (vehicle alone 1600 μM) it was more than 95%; in data set [1] (vehicle alone 3200 μM), 70 to 85%; in data set [2] (vehicle alone 800 μM) it was more than 95%; in data set [2] (vehicle alone 1600 μM) it was more than 95%; in data set [2] (vehicle alone 3200 μM), 70 to 85%. Moreover, the “impact of vehicle on cancer cell killing” value in data set [3] was “appear to have come cell killing effects”.
With `OCCNCCO` [Diethanolamine], the viability at 24 h, 800 μM in data set [1] (vehicle alone 800 μM) and in data set [2] (vehicle alone 800 μM) was 85 to 95% each time. Besides, the viability at 24 h, 1600 μM in data set [1] (vehicle alone 1600 μM) and in data set [2] (vehicle alone 1600 μM) was 85 to 95% throughout. Besides, the viability at 24 h, 3200 μM was more than 95% in data set [1] (vehicle alone 3200 μM) and 85 to 95% in data set [2] (vehicle alone 3200 μM). The “impact of vehicle on cancer cell killing” value in data set [3] was “did not show a significant impact on cancer cell killing”.
On to `O=C(O)CCCCC(CCSCc1ccccc1)SCc1ccccc1` (stereo not shown) [CPI-613 potassium salt], for which the “A2780 Cell Viability (alkali salt formulations)” value was “++ (tumor cell viability of >70% up to 95%)” in data set [4] (CPI-613 25 μM); “++ (tumor cell viability of >70% up to 95%)” in data set [4] (CPI-613 75 μM); “++ (tumor cell viability of >70% up to 95%)” in data set [4] (CPI-613 100 μM); “+++ (tumor cell viability of >30% up to 70%)” in data set [4] (CPI-613 200 μM); “+++++ (tumor cell viability of ≤10%)” in data set [4] (CPI-613 400 μM). In addition, the “cell kill in A2780 cells” value in data set [4] (salt formulation at 200 μM) is approximately 65%; in data set [4] (salt formulation at 400 μM), “all the cells were killed”. Moreover, the “BXPC3 Cell Viability (alkali salt formulations)” value in data set [5] (CPI-613 25 μM) is listed as “+ (tumor cell viability of >95%)”; in data set [5] (CPI-613 75 μM), “++ (tumor cell viability of >70% up to 95%)”; in data set [5] (CPI-613 100 μM), “++ (tumor cell viability of >70% up to 95%)”; in data set [5] (CPI-613 200 μM), “+++ (tumor cell viability of >30% up to 70%)”; in data set [5] (CPI-613 400 μM) it was “+++++ (tumor cell viability of ≤10%)”. The “cell kill in BXPC3 cells” value in data set [5] (salt formulation at 200 μM) is reported as approximately 50%; in data set [5] (salt formulation at 400 μM) it was “all the cells were killed”.
With `NCCN` [Ethylenediamine], the viability at 24 h, 800 μM in data set [1] (vehicle alone 800 μM) was 85 to 95%; in data set [2] (vehicle alone 800 μM) it was more than 95%. In addition, the viability at 24 h, 1600 μM in data set [1] (vehicle alone 1600 μM) is 85 to 95%; in data set [2] (vehicle alone 1600 μM), 70 to 85%. For the same molecule, the viability at 24 h, 3200 μM in data set [1] (vehicle alone 3200 μM) and in data set [2] (vehicle alone 3200 μM) was less than 70% in each case. In addition, in data set [3], the “impact of vehicle on cancer cell killing” value is “appear to have come cell killing effects”.
Consider Aminopropanediol, for which the “impact of vehicle on cancer cell killing” value in data set [3] was “did not show a significant impact on cancer cell killing”.
In the case of `NCCO` [Ethanolamine], the viability at 24 h, 800 μM is more than 95% in data set [1] (vehicle alone 800 μM) and 85 to 95% in data set [2] (vehicle alone 800 μM). In addition, the viability at 24 h, 1600 μM in data set [1] (vehicle alone 1600 μM) was more than 95%; in data set [2] (vehicle alone 1600 μM), 85 to 95%. Also, the viability at 24 h, 3200 μM was more than 95% in data set [1] (vehicle alone 3200 μM) and 85 to 95% in data set [2] (vehicle alone 3200 μM).
With `NCCCO` [3-amino-1-proponol], in data set [3], the “impact of vehicle on cancer cell killing” value was “did not show a significant impact on cancer cell killing”.
